# Key:
# [1] = system: apolipoprotein B mRNA; test: ob/ob mice (Example 50): apolipoprotein B mRNA levels in liver; format: in vivo, mouse; details: liver, high fat high cholesterol diet, 50 mg/kg i.p. twice a week, six weeks
# Protocol: (§1) Ob/ob mice receiving a high fat, high cholesterol diet (60% kcal fat supplemented with 0.15% cholesterol) were treated with one of several oligonucleotides to evaluate their effect on apolipoprotein B-related phenotypic endpoints in ob/ob mice. After overnight fasting, mice from each group were dosed intraperitoneally twice a week with 50 mg/kg of ISIS 147483 (SEQ ID NO: 79), or 147764 (SEQ ID NO: 109), or the controls ISIS 116847 (SEQ ID NO: 857), or 141923 (SEQ ID NO: 858), or saline for six weeks. At study termination and forty eight hours after the final injections, animals were sacrificed and evaluated for target mRNA levels in liver, cholesterol and triglyceride levels, liver enzyme levels, serum glucose levels, and PTEN levels.
# [2] = ob/ob mice (Example 50): cholesterol, lipid, triglyceride, liver enzyme and glucose levels; format: in vivo, mouse; details: high fat high cholesterol diet, 50 mg/kg i.p. twice a week, six weeks
# Protocol: as §1
# [3] = system: PTEN; test: ob/ob mice (Example 50): PTEN levels; format: in vivo, mouse; details: high fat high cholesterol diet, 50 mg/kg i.p. twice a week, six weeks
# Protocol: as §1
# [4] = system: apolipoprotein B mRNA; test: High fat fed mice, time-dependent effects and after cessation of dosing (Example 51): apolipoprotein B mRNA in liver; format: in vivo, mouse; details: liver, 50 mg/kg i.p. twice weekly
# Protocol: (§2) In a further embodiment of the invention, the inhibition of apolipoprotein B mRNA in mice was compared to liver oligonucleotide concentration, total cholesterol, LDL-cholesterol and HDL-cholesterol. Male C57Bl/6 mice receiving a high fat diet (60% fat) were evaluated over the course of 6 weeks for the effects of treatment with twice weekly intraperitoneal injections of 50 mg/kg ISIS 147764 (SEQ ID NO: 109) or 50 mg/kg of the control oligonucleotide ISIS 141923 (SEQ ID NO: 858). Control animals received saline treatment. Animals were sacrificed after 2 days, 1, 2, 4 and 6 weeks of treatment. Each treatment group at each time point consisted of 8 mice.
# (§3) Target expression in liver was measured by real-time PCR as described by other examples herein and is expressed as percent inhibition relative to saline treated mice. Total, LDL- and HDL-cholesterol levels were measured by routine clinical analysis using an Olympus Clinical Analyzer (Olympus America Inc., Melville, N.Y.) and are presented in mg/dL. Results from saline-treated animals are shown for comparison. Intact oligonucleotide in liver tissue was measured by capillary gel electrophoresis and is presented as micrograms of oligonucleotide per gram of tissue.
# (§4) The oligonucleotide treatments described in this example were duplicated to investigate the extent to which effects of ISIS 147764 persist following cessation of treatment. Mice were treated as described, and sacrificed 1, 2, 4, 6 and 8 weeks following the cessation of oligonucleotide treatment.
# [5] = High fat fed mice (Example 51): intact oligonucleotide in liver tissue by capillary gel electrophoresis; format: in vivo, mouse; details: 50 mg/kg i.p. twice weekly
# Protocol: as §2, §3, §4
# [6] = High fat fed mice (Example 51): total, LDL- and HDL-cholesterol levels; format: in vivo, mouse; details: 50 mg/kg i.p. twice weekly
# Protocol: as §2, §3, §4
# [7] = system: Cynomolgous monkey apolipoprotein B mRNA; test: Apolipoprotein B mRNA in primary Cynomolgous monkey hepatocytes, real-time PCR; format: cell-based; details: cynomolgous monkey primary hepatocytes; 10, 50, 150 or 300 nM
# Procedure, shortened: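 Primary cynomolgus hepatocytes treated with antisense oligonucleotides at 10, 50, 150 or 300 nM (some sets 10–150 nM) for 24 or 48 h, depending on the set. mRNA quantified by real-time PCR using human apoB and GAPDH primers/probes. Values are percent inhibition normalized to untreated cells, averaged over 2–6 experiments.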
# [8] = system: apolipoprotein B protein; test: Apolipoprotein B protein secreted from primary Cynomolgous monkey hepatocytes, ELISA; format: cell-based; details: primary Cynomolgous hepatocytes; 150 and 300 nM
# Protocol: Apolipoprotein B protein secreted from primary Cynomolgous hepatocytes treated with 150 and 300 nM of oligonucleotide was measured by ELISA using an apolipoprotein B protein specific kit (ALerCHEK Inc., Portland, Me.). Each result represents the average of 3 experiments.
# Apolipoprotein B protein secreted primary Cynomolgous hepatocytes treated with 50 and 150 nM of ISIS 315089 and ISIS 281625 was measured by ELISA using an apolipoprotein B protein specific kit (ALerCHEK Inc., Portland, Me.). Each result represents the average of 3 experiments.
# Apolipoprotein B protein secreted from primary Cynomolgous hepatocytes treated with 50 and 150 nM of ISIS 271009 and ISIS 301027 was measured by ELISA using an apolipoprotein B protein specific kit (ALerCHEK Inc., Portland, Me.). Each result represents the average of 3 experiments.
# [9] = system: apolipoprotein B protein; test: Apolipoprotein B protein in primary Cynomolgous monkey hepatocytes, immunoblot; format: cell-based
# Protocol: Additionally, protein was isolated from oligonucleotide-treated primary Cynomolgous monkey hepatocytes and subjected to immunoblot analysis to further assess apolipoprotein B protein expression. Immunoblotting was performed as described herein, using an antibody to human apolipoprotein B protein (US Biologicals, Swampscott, Mass.).
# [10] = high fat fed male C57Bl/6 mice, treatment period 1 week
# [11] = high fat fed male C57Bl/6 mice, treatment period 2 weeks
# [12] = high fat fed male C57Bl/6 mice, treatment period 4 weeks
# [13] = high fat fed male C57Bl/6 mice, treatment period 6 weeks
# [14] = high fat fed male C57Bl/6 mice, treatment period 2 days
# [15] = high fat fed mice, 1 week after cessation of dosing
# [16] = high fat fed mice, 2 weeks after cessation of dosing
# [17] = high fat fed mice, 4 weeks after cessation of dosing
# [18] = high fat fed mice, 6 weeks after cessation of dosing
# [19] = high fat fed mice, 8 weeks after cessation of dosing
substance,measurement,setting,value
"141923 (CCTTCCCTGAAGGTTCCTCC; listed as DNA, chemistry not given here) [compound 141923]",mRNA % control ApoB,[1],100.0 % control
same,Glucose,[2],328.5 mg/dL
same,Lipoproteins CHOL,[2],646.3 mg/dL
same,Lipoproteins TRIG,[2],196.5 mg/dL
same,Liver Enzymes ALT,[2],701.7 IU/L
same,Liver Enzymes AST,[2],329.3 IU/L
same,mRNA % control PTEN,[3],113.6 % control
same,% Inhibition apolipoprotein B mRNA,[4]; [10],4%
same,% Inhibition apolipoprotein B mRNA,[4]; [11],7%
same,% Inhibition apolipoprotein B mRNA,[4]; [12],0%
same,% Inhibition apolipoprotein B mRNA,[4]; [13],0%
same,% Inhibition apolipoprotein B mRNA,[4]; [14],9%
same,% Inhibition apolipoprotein B mRNA,[4]; [15],15%
same,% Inhibition apolipoprotein B mRNA,[4]; [16],2%
same,% Inhibition apolipoprotein B mRNA,[4]; [17],7%
same,% Inhibition apolipoprotein B mRNA,[4]; [18],11%
same,% Inhibition apolipoprotein B mRNA,[4]; [19],7%
same,Intact oligonucleotide,[5]; [10],61 µg/g
same,Intact oligonucleotide,[5]; [11],152 µg/g
same,Intact oligonucleotide,[5]; [12],261 µg/g
same,Intact oligonucleotide,[5]; [13],631 µg/g
same,Intact oligonucleotide,[5]; [14],58 µg/g
same,Intact oligonucleotide,[5]; [15],297 µg/g
same,Intact oligonucleotide,[5]; [16],250 µg/g
same,Intact oligonucleotide,[5]; [17],207 µg/g
same,Intact oligonucleotide,[5]; [18],212 µg/g
same,Intact oligonucleotide,[5]; [19],128 µg/g
same,HDL-cholesterol,[6]; [10],116 mg/dL
same,LDL-cholesterol,[6]; [10],27 mg/dL
same,Total cholesterol,[6]; [10],146 mg/dL
same,HDL-cholesterol,[6]; [11],122 mg/dL
same,LDL-cholesterol,[6]; [11],27 mg/dL
same,Total cholesterol,[6]; [11],152 mg/dL
same,HDL-cholesterol,[6]; [12],128 mg/dL
same,LDL-cholesterol,[6]; [12],38 mg/dL
same,Total cholesterol,[6]; [12],169 mg/dL
same,HDL-cholesterol,[6]; [13],166 mg/dL
same,LDL-cholesterol,[6]; [13],56 mg/dL
same,Total cholesterol,[6]; [13],225 mg/dL
same,HDL-cholesterol,[6]; [14],70 mg/dL
same,LDL-cholesterol,[6]; [14],8 mg/dL
same,Total cholesterol,[6]; [14],99 mg/dL
same,HDL-cholesterol,[6]; [15],121 mg/dL
same,LDL-cholesterol,[6]; [15],24 mg/dL
same,Total cholesterol,[6]; [15],158 mg/dL
same,HDL-cholesterol,[6]; [16],105 mg/dL
same,LDL-cholesterol,[6]; [16],24 mg/dL
same,Total cholesterol,[6]; [16],139 mg/dL
same,HDL-cholesterol,[6]; [17],135 mg/dL
same,LDL-cholesterol,[6]; [17],32 mg/dL
same,Total cholesterol,[6]; [17],185 mg/dL
same,HDL-cholesterol,[6]; [18],136 mg/dL
same,LDL-cholesterol,[6]; [18],32 mg/dL
same,Total cholesterol,[6]; [18],186 mg/dL
same,HDL-cholesterol,[6]; [19],108 mg/dL
same,LDL-cholesterol,[6]; [19],24 mg/dL
same,Total cholesterol,[6]; [19],151 mg/dL
"GCCTCAGTCTGCTTTACACC (gapmer: ten 2'-deoxy gap, five-nucleotide wings, wing chemistry not given here) [ISIS 326358]",inhibition of apolipoprotein B mRNA expression,[7],in a dose- and time-dependent manner
same,secretion of apolipoprotein B protein (ELISA),[8],decrease
same,apolipoprotein B expression (immunoblot),[9],substantial reduction

# Source: patent US7803930B2, “Antisense modulation of apolipoprotein B-expression” (Isis Pharmaceuticals, Inc., priority 2002, dated 2010)
